Key:
Type in all cases: cell-based
αK24′A α-βWT GlyR = molecular target: T1, αK24′A α-βWT GlyR (Homo sapiens, UniProt P23415+P48167, K304A)
T1 construct: The α R218-Q219 and β R242-Q243 are also the joining sites for chimeras constructed between the ECD and TMD; expressed in transfected cells; host or cells: HEK293 (ATCC)
Procedure: (§1) The human GlyR α1 and β subunit cDNAs were subcloned into the pcDNA3.1zeo+ (Invitrogen) or pGEMHE [44] plasmid vectors for expression in HEK293 cells or Xenopus oocytes, respectively. Site-directed mutagenesis and chimera construction were performed using the QuickChange (Stratagene, La Jolla, CA, USA) mutagenesis and multiple-template-based sequential PCR protocols, respectively.
(§2) The effects of the hyperekplexia-mimicking mutations, K24′A, V25′A and Y27′A, were examined on GlyRs expressed in HEK293 cells (ATCC). Details of the HEK293 cell culture, GlyR expression and electrophysiological recording of the HEK293 cells are described elsewhere. Briefly, HEK293 cells were maintained in DMEM supplemented with 10% fetal bovine serum. Cells were transfected using a calcium phosphate precipitation protocol. When co-transfecting the α1 together with the β or any other chimera subunits, their respective cDNAs were combined in a ratio of 1∶10. In addition, the pEGFP-N1 (Clontech) was co-transfected to facilitate identifying the transfected cells. […] Cells were treated with external Ringer's solution and internal CsCl solution [30]. Cells were voltage-clamped at −40 mV. When the heteromeric GlyRs were expressed, the picrotoxin sensitivity was tested to confirm that the majority of receptors are heteromers, [30].
(§3) Results are expressed as mean±standard error of the mean of three or more independent experiments. […] Statistical significance was determined using the Student's t-test.

αK24′A βWT GlyR = molecular target: T2, αK24′A βWT GlyR (Homo sapiens, UniProt P23415+P48167, K304A)
T2 construct: expressed in transfected cells; host or cells: HEK293 (ATCC)
Procedure: as §1, §2, §3

αR19′A βA19′R GlyR = molecular target: T3, αR19′A βA19′R GlyR (Homo sapiens, UniProt P23415+P48167, A317R/R299A)
T3 construct: expressed in transfected cells; host or cells: HEK293 (ATCC)
Procedure: as §1, §2, §3

αR19′A βWT GlyR = molecular target: T4, αR19′A βWT GlyR (Homo sapiens, UniProt P23415+P48167, R299A)
T4 construct: expressed in transfected cells; host or cells: HEK293 (ATCC)
Procedure: as §1, §2, §3

αV25′A αB-βWT GlyR = molecular target: T5, αV25′A αB-βWT GlyR (Homo sapiens, UniProt P23415+P48167, A80Q/V305A)
T5 construct: expressed in transfected cells; host or cells: HEK293 (ATCC)
Procedure: as §1, §2, §3

αV25′A αT-βWT GlyR = molecular target: T6, αV25′A αT-βWT GlyR (Homo sapiens, UniProt P23415+P48167, Q95A/V305A)
T6 construct: expressed in transfected cells; host or cells: HEK293 (ATCC)
Procedure: as §1, §2, §3

αV25′A βWT GlyR = molecular target: T7, αV25′A βWT GlyR (Homo sapiens, UniProt P23415+P48167, V305A)
T7 construct: expressed in transfected cells; host or cells: HEK293 (ATCC)
Procedure: as §1, §2, §3

αWT α-βK24′A GlyR = molecular target: T8, αWT α-βK24′A GlyR (Homo sapiens, UniProt P23415+P48167, A277S/G282P/I253M/I257A/I264V/I268L/K322A/L252M/M248V/M255V/M274P/P278A/Q254G/S259T/Y250F)
T8 construct: The α R218-Q219 and β R242-Q243 are also the joining sites for chimeras constructed between the ECD and TMD; expressed in transfected cells; host or cells: HEK293 (ATCC)
Procedure: as §1, §2, §3

αWT α-βY27′A GlyR = molecular target: T9, αWT α-βY27′A GlyR (Homo sapiens, UniProt P23415+P48167, A277S/G282P/I253M/I257A/I264V/I268L/L252M/M248V/M255V/M274P/P278A/Q254G/S259T/Y250F/Y325A)
T9 construct: The α R218-Q219 and β R242-Q243 are also the joining sites for chimeras constructed between the ECD and TMD; expressed in transfected cells; host or cells: HEK293 cells (ATCC), pcDNA3.1zeo+
Procedure: as §1, §2, §3

αWT αB-βV25′A GlyR = molecular target: T10, αWT αB-βV25′A GlyR (Homo sapiens, UniProt P23415+P48167, A165S/A240V/A277S/A80Q/E245R/G282P/H243T/I181K/I238V/I253M/I257A/I264V/I268L/K171T/L252M/M168L/M248V/M255V/M274P/N172L/P278A/Q254G/R241I/S259T/T179R/V177T/V323A/Y250F)
T10 construct: expressed in transfected cells; host or cells: HEK293 (ATCC)
Procedure: as §1, §2, §3

αWT αB-βWT GlyR = molecular target: T11, αWT αB-βWT GlyR (Homo sapiens, UniProt P23415+P48167, A165S/A240V/A277S/A316I/A325S/A80Q/DEL290-297/E245R/G282P/H243T/I181K/I238V/I253M/I257A/I264V/I268L/I311L/I313V/INS301ECTTLAAE/K171T/L252M/L327V/M168L/M248V/M255V/M274P/M315L/N172L/P278A/Q254G/R241I/R299L/S259T/S324A/T179R/T286F/T287S/V177T/V317A/V322G/Y250F)
T11 construct: expressed in transfected cells; host or cells: HEK293 (ATCC)
Procedure: as §1, §2, §3

αWT αT-βV25′A GlyR = molecular target: T12, αWT αT-βV25′A GlyR (Homo sapiens, UniProt P23415+P48167, I259R/K198I/L185M/L189N/Q95A/R196T/R263E/S182A/T188K/T194V/T261H/V256I/V258A/V323A)
T12 construct: expressed in transfected cells; host or cells: HEK293 (ATCC)
Procedure: as §1, §2, §3

αWT αT-βWT GlyR = molecular target: T13, αWT αT-βWT GlyR (Homo sapiens, UniProt P23415+P48167, I259R/K198I/L185M/L189N/Q95A/R196T/R263E/S182A/T188K/T194V/T261H/V256I/V258A)
T13 construct: expressed in transfected cells; host or cells: HEK293 (ATCC)
Procedure: as §1, §2, §3

αWT βK24′A GlyR = molecular target: T14, αWT βK24′A GlyR (Homo sapiens, UniProt P23415+P48167, K322A)
T14 construct: expressed in transfected cells; host or cells: HEK293 (ATCC)
Procedure: as §1, §2, §3

αWT βWT GlyR = molecular target: T15, αWT βWT GlyR (Homo sapiens, UniProt P23415+P48167)
T15 construct: expressed in transfected cells; host or cells: HEK293 (ATCC)
Procedure: as §1, §2, §3

[1] = αK24′A α-βWT, HEK293, with glycine at EC50 of α1 homomer
[2] = αK24′A βWT, HEK293, with glycine at EC50 of α1 homomer
[3] = αR19′A βA19′R, HEK293, with glycine at EC50 of α1 homomer
[4] = αR19′A βWT, HEK293, with glycine at EC50 of α1 homomer
[5] = αV25′A αB-βWT, HEK293, with glycine at EC50 of α1 homomer
[6] = αV25′A αT-βWT, HEK293, with glycine at EC50 of α1 homomer
[7] = αV25′A βWT, HEK293, with glycine at EC50 of α1 homomer
[8] = αWT α-βK24′A, HEK293, with glycine at EC50 of α1 homomer
[9] = αWT α-βY27′A, HEK293, with glycine at EC50 of α1 homomer
[10] = αWT αB-βV25′A, HEK293, with glycine at EC50 of α1 homomer
[11] = αWT αB-βWT, HEK293, with glycine at EC50 of α1 homomer
[12] = αWT αT-βV25′A, HEK293, with glycine at EC50 of α1 homomer
[13] = αWT αT-βWT, HEK293, with glycine at EC50 of α1 homomer
[14] = αWT βK24′A, HEK293, with glycine at EC50 of α1 homomer
[15] = αWT βWT, HEK293, with glycine at EC50 of α1 homomer

T4 sequence (P23415 29-449 isoform P23415-2 R299A limits assumed): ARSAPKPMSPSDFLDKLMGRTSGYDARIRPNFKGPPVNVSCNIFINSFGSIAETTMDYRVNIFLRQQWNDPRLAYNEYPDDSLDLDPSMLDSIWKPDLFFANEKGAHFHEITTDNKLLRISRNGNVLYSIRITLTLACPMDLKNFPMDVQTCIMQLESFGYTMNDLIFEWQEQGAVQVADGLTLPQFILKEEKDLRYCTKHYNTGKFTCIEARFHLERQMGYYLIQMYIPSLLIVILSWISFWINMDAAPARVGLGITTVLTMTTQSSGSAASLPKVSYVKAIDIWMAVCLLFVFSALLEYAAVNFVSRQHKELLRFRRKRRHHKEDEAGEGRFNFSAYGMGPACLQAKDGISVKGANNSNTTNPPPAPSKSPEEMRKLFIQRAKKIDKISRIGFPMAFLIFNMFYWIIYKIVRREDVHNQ
T4 sequence (P48167 23-497): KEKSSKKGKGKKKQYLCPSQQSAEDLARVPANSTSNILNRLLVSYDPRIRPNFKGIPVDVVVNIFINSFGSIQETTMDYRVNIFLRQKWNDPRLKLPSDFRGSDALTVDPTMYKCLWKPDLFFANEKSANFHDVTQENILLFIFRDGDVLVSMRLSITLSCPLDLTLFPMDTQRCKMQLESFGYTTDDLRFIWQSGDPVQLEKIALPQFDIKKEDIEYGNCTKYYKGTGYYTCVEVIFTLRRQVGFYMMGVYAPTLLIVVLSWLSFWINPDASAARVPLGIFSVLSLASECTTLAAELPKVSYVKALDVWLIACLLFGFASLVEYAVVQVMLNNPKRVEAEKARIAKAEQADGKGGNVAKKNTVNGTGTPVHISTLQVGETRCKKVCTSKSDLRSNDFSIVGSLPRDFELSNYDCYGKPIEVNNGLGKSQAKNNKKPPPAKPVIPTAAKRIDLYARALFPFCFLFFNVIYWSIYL
T3 sequence (P23415 29-449 isoform P23415-2 R299A limits assumed): as the sequence (P23415 29-449 isoform P23415-2 R299A limits assumed) above
T3 sequence (P48167 23-497 A317R): as the sequence (P48167 23-497) above, with A295R counted along it
T7 sequence (P23415 29-449 isoform P23415-2 V305A limits assumed): as the sequence (P23415 29-449 isoform P23415-2 R299A limits assumed) above, with A271R, V277A counted along it
T7 sequence (P48167 23-497): as the sequence (P48167 23-497) above
T5 sequence (P23415 29-449 isoform P23415-2 V305A): as the sequence (P23415 29-449 isoform P23415-2 R299A limits assumed) above, with A271R, V277A counted along it
T5 sequence (P23415+P48167 fused with the stated changes): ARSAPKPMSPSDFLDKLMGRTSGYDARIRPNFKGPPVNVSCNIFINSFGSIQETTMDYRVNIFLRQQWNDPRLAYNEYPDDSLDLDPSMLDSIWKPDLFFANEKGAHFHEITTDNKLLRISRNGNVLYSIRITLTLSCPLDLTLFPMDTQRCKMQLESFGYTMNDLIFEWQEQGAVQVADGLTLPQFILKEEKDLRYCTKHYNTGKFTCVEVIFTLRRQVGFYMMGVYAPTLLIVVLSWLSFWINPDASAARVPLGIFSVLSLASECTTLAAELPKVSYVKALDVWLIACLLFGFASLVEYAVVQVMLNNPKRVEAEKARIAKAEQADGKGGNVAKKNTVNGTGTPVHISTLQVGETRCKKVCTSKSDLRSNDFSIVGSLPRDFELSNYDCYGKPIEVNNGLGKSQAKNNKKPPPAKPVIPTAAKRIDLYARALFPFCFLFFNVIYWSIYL
T6 sequence (P23415 29-449 isoform P23415-2 V305A): as the sequence (P23415 29-449 isoform P23415-2 R299A limits assumed) above, with A271R, V277A counted along it
T6 sequence (P48167 23-497 Q95A/S182A/L185M/T188K/L189N/T194V/R196T/K198I/V256I/V258A/I259R/T261H/R263E): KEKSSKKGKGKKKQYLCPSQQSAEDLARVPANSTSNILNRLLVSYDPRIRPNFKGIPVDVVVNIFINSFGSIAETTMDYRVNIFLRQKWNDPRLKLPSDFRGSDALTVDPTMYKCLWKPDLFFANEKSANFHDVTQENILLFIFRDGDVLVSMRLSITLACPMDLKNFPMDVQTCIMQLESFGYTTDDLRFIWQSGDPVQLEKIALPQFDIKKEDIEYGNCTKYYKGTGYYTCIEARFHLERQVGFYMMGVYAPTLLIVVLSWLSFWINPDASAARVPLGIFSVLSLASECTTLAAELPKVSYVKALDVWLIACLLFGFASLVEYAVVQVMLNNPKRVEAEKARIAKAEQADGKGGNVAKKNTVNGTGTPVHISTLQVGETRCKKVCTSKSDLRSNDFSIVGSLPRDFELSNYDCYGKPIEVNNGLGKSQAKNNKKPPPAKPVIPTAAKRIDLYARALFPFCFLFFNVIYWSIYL

## picrotoxin [PTX]
αK24′A α-βWT GlyR; [1]
  10uM PTX inhibition (%): 4.8±0.7%
  100uM PTX inhibition (%): 26±5%
αK24′A βWT GlyR; [2]
  10uM PTX inhibition (%): 2.2±1.1%
  100uM PTX inhibition (%): 20±5%
αR19′A βA19′R GlyR; [3]
  10uM PTX inhibition (%): 4.2±1.7%
  100uM PTX inhibition (%): 22±8%
αR19′A βWT GlyR; [4]
  10uM PTX inhibition (%): 2.8±2.1%
  100uM PTX inhibition (%): 20±9%
αV25′A αB-βWT GlyR; [5]
  10uM PTX inhibition (%): 4.8±0.6%
  100uM PTX inhibition (%): 27±2%
αV25′A αT-βWT GlyR; [6]
  10uM PTX inhibition (%): 3.7±1.6%
  100uM PTX inhibition (%): 25±4%
αV25′A βWT GlyR; [7]
  10uM PTX inhibition (%): 4.7±0.7%
  100uM PTX inhibition (%): 38±3%
αWT α-βK24′A GlyR; [8]
  10uM PTX inhibition (%): 5.6±1.0%
  100uM PTX inhibition (%): 35±4%
αWT α-βY27′A GlyR; [9]
  10uM PTX inhibition (%): 4.9±0.3%
  100uM PTX inhibition (%): 39±5%
αWT αB-βV25′A GlyR; [10]
  10uM PTX inhibition (%): 8.9±2.4%
  100uM PTX inhibition (%): 43±3%
αWT αB-βWT GlyR; [11]
  10uM PTX inhibition (%): 4.8±0.9%
  100uM PTX inhibition (%): 33±4%
αWT αT-βV25′A GlyR; [12]
  10uM PTX inhibition (%): 8.5±1.8%
  100uM PTX inhibition (%): 36±3%
αWT αT-βWT GlyR; [13]
  10uM PTX inhibition (%): 3.2±0.6%
  100uM PTX inhibition (%): 25±6%
αWT βK24′A GlyR; [14]
  10uM PTX inhibition (%): 6.0±1.2%
  100uM PTX inhibition (%): 35±3%
αWT βWT GlyR; [15]
  10uM PTX inhibition (%): 8.5±1.8%
  100uM PTX inhibition (%): 33±9%

## NCC(=O)O [glycine]
αK24′A α-βWT GlyR
  Imax: 7.2±0.9 nA
  nH: 1.0±0.1
αK24′A βWT GlyR
  Imax: 6.3±1.1 nA
  nH: 1.8±0.2
αR19′A βA19′R GlyR
  Imax: 5.5±0.9 nA
  nH: 2.1±0.2
αR19′A βWT GlyR
  Imax: 3.9±1.3 nA
  nH: 2.5±0.3
αV25′A αB-βWT GlyR
  Imax: 5.5±0.9 nA
  nH: 1.1±0.0
αV25′A αT-βWT GlyR
  Imax: 6.0±1.7 nA
  nH: 1.4±0.2
αV25′A βWT GlyR
  Imax: 7.4±2.8 nA
  nH: 1.4±0.2
αWT α-βK24′A GlyR
  Imax: 8.0±1.8 nA
  nH: 1.5±0.2
αWT α-βY27′A GlyR
  Imax: 6.9±3.1 nA
  nH: 1.3±0.3
αWT αB-βV25′A GlyR
  Imax: 9.8±4.9 nA
  nH: 2.2±0.3
αWT αB-βWT GlyR
  Imax: 8.6±1.6 nA
  nH: 1.8±0.4
αWT αT-βV25′A GlyR
  Imax: 14±3.0 nA
  nH: 2.3±0.1
αWT αT-βWT GlyR
  Imax: 12.0±1.6 nA
  nH: 2.0±0.1
αWT βK24′A GlyR
  Imax: 5.4±1.0 nA
  nH: 1.5±0.3
αWT βWT GlyR
  Imax: 4.3±1.2 nA
  nH: 2.0±0.4

Source: publication PMC3222680 (PLoS ONE, 2011)
